Results on 68 sequences are retold here after the supplement of paper PMC11208160.

The nature of this data set: recombinant UMI read abundance after kanamycin selection (control-corrected) (log10(CPM+1)); higher = more efficient recombination; extreme values may be limits of the assay; sequences stand for … in AGTGCAGAGAAAATCGGCCAGTTTTCTCTGCCTGCAGTCCGCATGCCGTGGGACCCCTTGGGTTCTAACCTGTTGCCTAGATTTATGCAGCGGACTGCCTTTCTCCCAAAGTGATAAACCGG…AGGTTGGTTTCACT; site = the 11-nt donor. The gist of the method: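 The measure is log10(CPM+1) for recombinant UMIs. These were PCR-amplified across the donor–target junction and sequenced after Escherichia coli carrying a donor and donor-binding-loop pair library and a target plasmid with T7-inducible IS621 bridge recombinase was plated on IPTG (0.07 mM) plus kanamycin or unselected. CPM were averaged over two replicates and scaled by control-derived factors.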
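Note: IS621 bridge recombinase in Escherichia coli cells against a fixed T5 target plasmid.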

“CTACGAACATGGACCGGTTTTCCCGGTAATCCGTATTTGGG (site CTACGAACTCC)”: the “recombinant UMI read abundance (log10)” value amounted to 1.11.
The figure for “CTACGCCCATGGACCGGTTTTCCCGGTAATCCGTATTTGTG (site CTACGCCCTCA)” is 0.232.
The value for “CTACGTCCATGGACCGGTTTTCCCGGTAATCCGTATTTGAA (site CTACGTCCTTT)” was 1.23; that for “CTACTAACATGGACCGGTTTTCCCGGTAATCCGTATTTGCA (site CTACTAACTTA)” was 1.4; that for “CTACTAACATGGACCGGTTTTCCCGGTAATCCGTATTTGCA (site CTACTAACTTC)” was 0.0167.
As for “CTACTAACATGGACCGGTTTTCCCGGTAATCCGTATTTGCA (site CTACTAACTTG)”, the “recombinant UMI read abundance (log10)” value was 2.47.
The figure for “CTACTAACATGGACCGGTTTTCCCGGTAATCCGTATTTGCA (site CTACTAACTTT)” is 1.47; for “CTACTAACATGGACCGGTTTTCCCGGTAATCCGTATTTGGT (site CTACTAACTAC)” it is 0.461; for “CTACTAACATGGACCGGTTTTCCCGGTAATCCGTATTTGGT (site CTACTAACTCC)” it is 0.0128.
With “CTACTAACATGGACCGGTTTTCCCGGTAATCCGTATTTGGT (site CTACTAACTGC)”, the “recombinant UMI read abundance (log10)” value was determined as 0.
The value for “CTACTAACATGGACCGGTTTTCCCGGTAATCCGTATTTGGT (site CTACTAACTTC)” was 0.0138.
Regarding “CTACTAGCATGGACCGGTTTTCCCGGTAATCCGTATTTGGA (site CTACTAACTTC)”, the “recombinant UMI read abundance (log10)” value was found to be 1.43.
For the sequence “CTACTAGCATGGACCGGTTTTCCCGGTAATCCGTATTTGGA (site CTACTACCTTC)”, the “recombinant UMI read abundance (log10)” value came out at 0.00939.
The value for “CTACTAGCATGGACCGGTTTTCCCGGTAATCCGTATTTGGA (site CTACTAGCTTC)” was 1.52.
Turning to “CTACTAGCATGGACCGGTTTTCCCGGTAATCCGTATTTGGA (site CTACTATCTTC)”, the “recombinant UMI read abundance (log10)” value was found to be 2.05.
The figure for “CTACTGACATGGACCGGTTTTCCCGGTAATCCGTATTTGGA (site CTACTAACTTC)” is 1.76; for “CTACTGACATGGACCGGTTTTCCCGGTAATCCGTATTTGGA (site CTACTCACTTC)” it is 0.015.
The figure for “CTACTGACATGGACCGGTTTTCCCGGTAATCCGTATTTGGA (site CTACTGACTTC)” is 0.475; for “CTACTGACATGGACCGGTTTTCCCGGTAATCCGTATTTGGA (site CTACTTACTTC)” it is 0.67; for “CTACTTACATGGACCGGTTTTCCCGGTAATCCGTATTTGGA (site CTACTAACTTC)” it is 0.0935.
The value for “CTACTTACATGGACCGGTTTTCCCGGTAATCCGTATTTGGA (site CTACTCACTTC)” was 0.209; that for “CTACTTACATGGACCGGTTTTCCCGGTAATCCGTATTTGGA (site CTACTGACTTC)” was 0.0111; that for “CTACTTACATGGACCGGTTTTCCCGGTAATCCGTATTTGGA (site CTACTTACTTC)” was 1.32.
Take “CTACTTTCATGGACCGGTTTTCCCGGTAATCCGTATTTGAC (site CTACTTTCTGT)”: the “recombinant UMI read abundance (log10)” value stood at 1.94.
The figure for “CTACTTTCATGGACCGGTTTTCCCGGTAATCCGTATTTGAC (site CTAGTATCTGT)” is 0; for “CTAGAATCATGGACCGGTTTTCCCGGTAATCCGTATTTGAC (site CTAGAATCTGT)” it is 2.83; for “CTAGAATCATGGACCGGTTTTCCCGGTAATCCGTATTTGAC (site CTAGCATCTGT)” it is 0.
As for “CTAGAATCATGGACCGGTTTTCCCGGTAATCCGTATTTGAC (site CTAGGATCTGT)”, the “recombinant UMI read abundance (log10)” value is 1.28.
The value for “CTAGAATCATGGACCGGTTTTCCCGGTAATCCGTATTTGAC (site CTAGTATCTGT)” was 2; that for “CTAGAGGCATGGACCGGTTTTCCCGGTAATCCGTATTTGTT (site CTAGAGGCTAA)” was 1.82; that for “CTAGCAGCATGGACCGGTTTTCCCGGTAATCCGTATTTGCT (site CAAGCAGCTAG)” was 0.38.
In the case of “CTAGCAGCATGGACCGGTTTTCCCGGTAATCCGTATTTGCT (site CCAGCAGCTAG)”, the “recombinant UMI read abundance (log10)” value came to 0.129.
The value for “CTAGCAGCATGGACCGGTTTTCCCGGTAATCCGTATTTGCT (site CGAGCAGCTAG)” was 0; that for “CTAGCAGCATGGACCGGTTTTCCCGGTAATCCGTATTTGCT (site CTAGCAGCTAG)” was 1.36; that for “CTAGCGCCATGGACCGGTTTTCCCGGTAATCCGTATTTGTG (site CAAGCGCCTCA)” was 0.0754.
Regarding “CTAGCGCCATGGACCGGTTTTCCCGGTAATCCGTATTTGTG (site CCAGCGCCTCA)”, the “recombinant UMI read abundance (log10)” value turned out to be 0.0159.
The figure for “CTAGCGCCATGGACCGGTTTTCCCGGTAATCCGTATTTGTG (site CGAGCGCCTCA)” is 0.00935; for “CTAGCGCCATGGACCGGTTTTCCCGGTAATCCGTATTTGTG (site CTAGCGCCTCA)” it is 0.446; for “CTAGGACCATGGACCGGTTTTCCCGGTAATCCGTATTTGGG (site CAAGGACCTCC)” it is 0.0215.
The value for “CTAGGACCATGGACCGGTTTTCCCGGTAATCCGTATTTGGG (site CCAGGACCTCC)” was 0.00872; that for “CTAGGACCATGGACCGGTTTTCCCGGTAATCCGTATTTGGG (site CGAGGACCTCC)” was 0; that for “CTAGGACCATGGACCGGTTTTCCCGGTAATCCGTATTTGGG (site CTAGGACCTCC)” was 0.0095.
“CTAGGACCATGGACCGGTTTTCCCGGTAATCCGTATTTGTG (site CTAGGACCTCA)”: the “recombinant UMI read abundance (log10)” value was determined as 0.00443.
For “CTAGGATCATGGACCGGTTTTCCCGGTAATCCGTATTTGAC (site CTAGAATCTGT)”, the “recombinant UMI read abundance (log10)” value is 2.89.
For “CTAGGATCATGGACCGGTTTTCCCGGTAATCCGTATTTGAC (site CTAGCATCTGT)”, the “recombinant UMI read abundance (log10)” value was found to be 1.06.
The figure for “CTAGGATCATGGACCGGTTTTCCCGGTAATCCGTATTTGAC (site CTAGGATCTGT)” is 1.9; for “CTAGGATCATGGACCGGTTTTCCCGGTAATCCGTATTTGAC (site CTAGTATCTGT)” it is 1.35.
In the case of “CTAGTACCATGGACCGGTTTTCCCGGTAATCCGTATTTGGC (site CTAGTACCTGC)”, the “recombinant UMI read abundance (log10)” value worked out at 0.
The figure for “CTAGTACCATGGACCGGTTTTCCCGGTAATCCGTATTTGGC (site CTAGTATCTGT)” is 1.63; for “CTAGTAGCATGGACCGGTTTTCCCGGTAATCCGTATTTGAC (site CTAGTAACTGT)” it is 2.01; for “CTAGTAGCATGGACCGGTTTTCCCGGTAATCCGTATTTGAC (site CTAGTACCTGT)” it is 0.
The figure for “CTAGTAGCATGGACCGGTTTTCCCGGTAATCCGTATTTGAC (site CTAGTAGCTGT)” is 2.87; for “CTAGTAGCATGGACCGGTTTTCCCGGTAATCCGTATTTGAC (site CTAGTATCTGT)” it is 2.74; for “CTAGTATCATGGACCGGTTTTCCCGGTAATCCGTATTTGGC (site CTAGTATCTGA)” it is 2.25.
Turning to “CTAGTATCATGGACCGGTTTTCCCGGTAATCCGTATTTGGC (site CTAGTATCTGC)”, the “recombinant UMI read abundance (log10)” value stood at 3.32.
Regarding “CTAGTATCATGGACCGGTTTTCCCGGTAATCCGTATTTGGC (site CTAGTATCTGG)”, the “recombinant UMI read abundance (log10)” value was found to be 2.2.
For the sequence “CTAGTATCATGGACCGGTTTTCCCGGTAATCCGTATTTGGC (site CTAGTATCTGT)”, the “recombinant UMI read abundance (log10)” value came to 2.76.
Regarding “CTAGTATCATGGACCGGTTTTCCCGGTAATCCGTATTTGGT (site CTAGTATCTAC)”, the “recombinant UMI read abundance (log10)” value was determined as 1.85.
The figure for “CTAGTATCATGGACCGGTTTTCCCGGTAATCCGTATTTGGT (site CTAGTATCTGT)” is 2.06; for “CTAGTATCATGGACCGGTTTTCCCGGTAATCCGTATTTGTC (site CTAGTATCTGA)” it is 3.35.
With “CTAGTATCATGGACCGGTTTTCCCGGTAATCCGTATTTGTC (site CTAGTATCTGC)”, the “recombinant UMI read abundance (log10)” value amounted to 3.17.
The figure for “CTAGTATCATGGACCGGTTTTCCCGGTAATCCGTATTTGTC (site CTAGTATCTGG)” is 3.08; for “CTAGTATCATGGACCGGTTTTCCCGGTAATCCGTATTTGTC (site CTAGTATCTGT)” it is 2.65.
Turning to “CTAGTCTCATGGACCGGTTTTCCCGGTAATCCGTATTTGAG (site CTAGTATCTGT)”, the “recombinant UMI read abundance (log10)” value stood at 0.
The figure for “CTAGTCTCATGGACCGGTTTTCCCGGTAATCCGTATTTGAG (site CTAGTCTCTCT)” is 0.61; for “CTAGTCTCATGGACCGGTTTTCCCGGTAATCCGTATTTGTC (site CTAGTATCTGT)” it is 0.445.
The figure for “CTAGTCTCATGGACCGGTTTTCCCGGTAATCCGTATTTGTC (site CTAGTCTCTGA)” is 3.48; for “CTAGTTGCATGGACCGGTTTTCCCGGTAATCCGTATTTGAC (site CTAGTATCTGT)” it is 0.412.
